What all share (type): cell-based
For assay [1], the target named is T1, STING variants (HAQ) (Homo sapiens, UniProt Q86WV6, G230A/R293Q/R71H).
T1 construct: host or cells: HEK-Blue ISG KO-STING cells (Invivogen, hkb-kostg)
Put plainly: SEAP reporter assay in HEK-Blue ISG KO-STING cells transfected with STING HAQ variant (Method 1). The conditions noted are these: 24 h. The text has this: (§1) Example I: STING Variants (WT & HAQ) Activation by Compounds in HEK-Blue™ ISG KO-STING Cells (Method 1)
(§2) Activation of STING can be determined using a SEAP reporter assay in HEK-Blue™ ISG KO-STING cells (Invivogen, cat #hkb-kostg) transfected with plasmids expressing STING variants (WT & HAQ) (referred to WO2017/175147A1). STING variants (WT & HAQ) vector were constructed based on STING-232H vector (Origene, RC208418). GFP vector (VT2069) was bought from Youbio. The detailed protocol as follows: HEK-Blue™ ISG KO-STING cells were harvest and seeding into 96 well plate, the final cell number was 0.8×10^5 cells/well. Transfections were prepared using Lipofectamine 2000 (Invitrogen, Cat #11668-027) following the manufacturer's instructions (Lipo2000:DNA=1:10), 20 ul of transfection suspension containing 1 ng STING vector was added to cell culture plate and incubated at 37° C., 5% CO2 for 24 h. After 24 hours incubation, compounds were added at proper concentration, and the final DMSO concentration was 0.5%. After 24 h incubation, the supernatant was collected to detect SEAP signal using Great EscAPe SEAP chemiluminescence KIT (Clontech, cat #631738) and cells were collected to detect cell viability using CellTiter-Glo Luminescent Cell Viability Assay (Promega, cat #G7573) following the manufacturer's instructions. The data were described by the ratio of the stimulating signal of compounds to 0.5% DMSO.

Assay [2] deals with T2, STING variants (WT) (Homo sapiens, UniProt Q86WV6).
T2 construct: host or cells: HEK-Blue ISG KO-STING cells (Invivogen, hkb-kostg)
Kind of assay: SEAP reporter assay in HEK-Blue ISG KO-STING cells transfected with STING WT variant (Method 1). The conditions noted are these: 24 h.
Excerpt: as §1, §2

The next assay addresses T3, STING (Homo sapiens, UniProt Q86WV6, G230A/H232R/R293Q/R71H).
T3 construct: THP1 was purchased from National Collection of Authenticated Cell Cultures (Cat #TCHu 57); host or cells: THP1
Put plainly: IFNβ release from THP1 by STING activation (hIFNβ ELISA). The conditions noted are these: THP1 cells, 24 h, IFN-β in supernatant; inactive = IFNβ not detected at the maximum concentration of compounds. On the procedure: Example III: Compound Stimulate THP1 to Release IFNβ by STING Activation
In this assay, activation of STING by compounds was evaluated by detecting their ability to stimulate the secretion of IFN-β (interferon-beta) from THP1. THP1 was purchased from National Collection of Authenticated Cell Cultures (Cat #TCHu 57). The top dose of compounds was setted according to their solubility. First, Compounds were 3 times diluted with medium, 8-dose points in total. The final DMSO concentration was 0.2%. THP1 during the logarithmic phase was resuspended to 2×10^6 cells/ml in assay medium. The THP1-cell suspension was dispensed into a 96-well U bottom plate containing 50 ul of compound diluted in medium. After 24 h incubation at 37° C., 5% CO2, the supernatant was collected. The concentration of IFN-β in the supernatant was measured using a human IFNβ ELISA KIT (R&D, DY814-05). The data was fitted with GraphPad Prism or XLfit to calculate EC50 values.

Assay [3] concerns the target T1, STING variants (HAQ). Kind of assay: SEAP reporter assay in HEK-Blue ISG KO-STING cells transfected with STING HAQ variant (Method 2, 0.0625 ng vector). Particulars: compound concentration 5 (mM as printed); 24 h; SEAP signal ratio to 0.5% DMSO.
Excerpt: (§3) Example II: STING Variants (WT & HAQ) Activation by Compounds in HEK-Blue™ ISG KO-STING Cells (Method 2)
as §2, with “96 well plate and the final” for “96 well plate, the final”, “1 ng (WT variant) or 0.0625 ng (HAQ variant) STING vector” for “1 ng STING vector”, “proper concentration, the final” for “proper concentration, and the final”, “0.5%. After 24h incubation, the” for “0.5%. After 24 h incubation, the”, “Cell Viability Assay(Promega, cat #G7573)” for “Cell Viability Assay (Promega, cat #G7573)”

In assay [4] the target is T2, STING variants (WT). Put plainly: SEAP reporter assay in HEK-Blue ISG KO-STING cells transfected with STING WT variant (Method 2, 1 ng vector). The conditions noted are these: compound concentration 2.5 (mM as printed); 24 h; SEAP signal ratio to 0.5% DMSO.
Excerpt: as §3
as §2, with “96 well plate and the final” for “96 well plate, the final”, “1 ng (WT variant) or 0.0625 ng (HAQ variant) STING vector” for “1 ng STING vector”, “proper concentration, the final” for “proper concentration, and the final”, “0.5%. After 24h incubation, the” for “0.5%. After 24 h incubation, the”, “Cell Viability Assay(Promega, cat #G7573)” for “Cell Viability Assay (Promega, cat #G7573)”

A value given as a limit tells only on which side of the number the result lay.

The values that follow come from patent US20240287093A1, “HIGH ACTIVITY STING PROTEIN AGONIST” (ADLAI NORTYE BIOPHARMA CO., LTD., priority 2018, published 2024).

T3 sequence (Q86WV6 whole entry R71H/G230A/H232R/R293Q): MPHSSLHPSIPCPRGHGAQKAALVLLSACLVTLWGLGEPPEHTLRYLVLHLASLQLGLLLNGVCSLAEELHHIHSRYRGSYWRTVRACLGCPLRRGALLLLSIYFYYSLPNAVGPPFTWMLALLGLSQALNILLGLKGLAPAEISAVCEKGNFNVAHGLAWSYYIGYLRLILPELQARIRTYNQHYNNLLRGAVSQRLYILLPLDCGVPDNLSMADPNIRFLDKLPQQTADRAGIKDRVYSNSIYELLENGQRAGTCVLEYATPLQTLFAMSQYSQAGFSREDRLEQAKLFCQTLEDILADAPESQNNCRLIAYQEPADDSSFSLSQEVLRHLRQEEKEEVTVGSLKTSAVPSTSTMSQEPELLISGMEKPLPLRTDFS
T1 sequence (Q86WV6 whole entry R71H/G230A/R293Q): as the sequence (Q86WV6 whole entry R71H/G230A/H232R/R293Q) above, with R232H counted along it

For the compound `CC[C@H]1COc2cc(C(N)=O)cc3nc(NC(=O)c4cc(C)nn4CC)n1c23` [Example 26, (S)-3-Ethyl-2-(1-ethyl-3-methyl-1H-pyrazole-5-carboxamido)-3,4-dihydro-5-oxa-1,2a-diazaacenaphthylene-7-carboxamide], the “Fold change related to DMSO control, HAQ” value on STING variants (HAQ) [1] (compound concentration 25 μM) came to 63.91 fold. For the same compound, the “Fold change related to DMSO control, WT” value on STING variants (WT) [2] (compound concentration 25 μM) was determined as 2.00 fold. On STING, this compound had an EC50 of 11.4 µM.

With `CCn1nc(C)cc1C(=O)Nc1nc2cc(C(N)=O)cc3c2n1CC(C)(C)CO3` [Example 27, 1-(1-Ethyl-3-methyl-1H-pyrazole-5-carboxamido)-8,8-dimethyl-8,9-dihydro-7H-6-oxa-2,9a-diazabenzo[cd]azulene-4-carboxamide], the “Fold change related to DMSO control, HAQ” value on STING variants (HAQ) [1] (compound concentration 25 μM) is 56.43 fold. The “Fold change related to DMSO control, WT” value at STING variants (WT) [2] (compound concentration 25 μM) is on record as 2.37 fold. In addition, the EC50 at STING was 22.1 µM.

For the compound `CCn1nc(C)cc1C(=O)Nc1nc2cc(C(N)=O)cc3c2n1CC1(CC1)O3` [Example 28, 2-(1-Ethyl-3-methyl-1H-pyrazole-5-carboxamido)-3H-5-oxa-1,2a-diazaspiro[acenaphthylene-4,1′-cyclopropan]-1,2a^1(5a),6,8-tetraene-7-carboxamide], on STING variants (HAQ) [1] (compound concentration 25 μM), the “Fold change related to DMSO control, HAQ” value is recorded as 38.16 fold. Moreover, the “Fold change related to DMSO control, WT” value on STING variants (WT) [2] (compound concentration 25 μM) is listed as 2.34 fold. In addition, the “hIFNβ ELISA (EC50, μM)” value on STING was “inactive”.

Turning to `CCn1nc(C)cc1C(=O)Nc1nc2cc(C(N)=O)cc3c2n1[C@@H](CCCNC(=O)/C=C/c1ccccc1)CO3` [Example 31, (S)-3-(3-Cinnamamidopropyl)-2-(1-ethyl-3-methyl-1H-pyrazole-5-carboxamido)-3,4-dihydro-5-oxa-1,2a-diazaacenaphthylene-7-carboxamide], the “Fold change related to DMSO control, HAQ” value on STING variants (HAQ) [1] (compound concentration 25 μM) is given as 22.11 fold. The “Fold change related to DMSO control, WT” value on STING variants (WT) [2] (compound concentration 25 μM) turned out to be 2.71 fold. Besides, on STING, the “hIFNβ ELISA (EC50, μM)” value was “inactive”.

As for `CCn1nc(C)cc1C(=O)Nc1nc2cc(C(N)=O)cc3c2n1[C@@H](CCCNC(=O)OCc1cccnc1)CO3` [Example 32, Pyridin-3-ylmethyl (S)-(3-(7-carbamoyl-2-(1-ethyl-3-methyl-1H-pyrazole-5-carboxamido)-3,4-dihydro-5-oxa-1,2a-diazaacenaphthylen-3-yl)propyl)carbamate], the “Fold change related to DMSO control, HAQ” value at STING variants (HAQ) [1] (compound concentration 25 μM) is on record as 2.88 fold. Moreover, the “Fold change related to DMSO control, WT” value on STING variants (WT) [2] (compound concentration 25 μM) was found to be 1.45 fold. Further, on STING, the “hIFNβ ELISA (EC50, μM)” value is “inactive”.

`CCn1nc(C)cc1C(=O)Nc1nc2cc(C(N)=O)cc3c2n1[C@@H](CCCNC(=O)COc1ccccc1)CO3` [Example 33, (S)-2-(1-ethyl-3-methyl-1H-pyrazole-5-carboxamido)-3-(3-(2-phenoxyacetamido)propyl)-3,4-dihydro-5-oxa-1,2a-diazaacenaphthylene-7-carboxamide]: the “Fold change related to DMSO control, HAQ” value at STING variants (HAQ) [1] (compound concentration 25 μM) was 20.81 fold. Besides, the “Fold change related to DMSO control, WT” value at STING variants (WT) [2] (compound concentration 25 μM) stood at 2.49 fold. Moreover, the “hIFNβ ELISA (EC50, μM)” value on STING is “inactive”.

As for `CCn1nc(C)cc1C(=O)Nc1nc2cc(C(N)=O)cc3c2n1[C@@H](CCCNC(=O)OCc1ccccc1)CN3C` [Example 43, Benzyl (S)-(3-(8-carbamoyl-2-(1-ethyl-3-methyl-1H-pyrazole-5-carbozamido)-6-methyl-5,6-dihydro-4H-imidazo[1,5,4-de]quinoxalin-4-yl)propyl)carbamate], the “Fold change related to DMSO control, HAQ” value at STING variants (HAQ) [1] (compound concentration 5 μM) stood at 23.88 fold. Moreover, at STING variants (WT) [2] (compound concentration 2.5 μM), the “Fold change related to DMSO control, WT” value is 2.02 fold. In addition, the “hIFNβ ELISA (EC50, μM)” value on STING is “inactive”.

Consider `CCn1nc(C)c(F)c1C(=O)Nc1nc2cc(C(N)=O)cc3c2n1CC(C)(C)CO3` [Example 44, 1-(1-Ethyl-4-fluoro-3-methyl-1H-pyrazole-5-carboxamido)-8,8-dimethyl-8,9-dihydro-7H-6-oxa-2,9a-diazabenzo[cd]azulene-4-carboxamide], for which the “Fold change related to DMSO control, HAQ” value on STING variants (HAQ) [3] is 15.38 fold. In addition, the “Fold change related to DMSO control, WT” value on STING variants (WT) [4] is listed as 2.48 fold. On STING, the midpoint of the response, the EC50, lay at 19.8 µM.

As to `CCn1nc(C)c(Cl)c1C(=O)Nc1nc2cc(C(N)=O)cc3c2n1CC(C)(C)CO3` [Example 45, 1-(4-Chloro-1-ethyl-3-methyl-1H-pyrazole-5-carboxamido)-8,8-dimethyl-8,9-dihydro-7H-6-oxa-2,9a-diazabenzo[cd]azulene-4-carboxamide], the “Fold change related to DMSO control, HAQ” value at STING variants (HAQ) [3] came to 1.59 fold. Further, the “Fold change related to DMSO control, WT” value on STING variants (WT) [4] worked out at 1.18 fold. Further, the “hIFNβ ELISA (EC50, μM)” value on STING is “inactive”.

Regarding `CCn1nc(C)c(Br)c1C(=O)Nc1nc2cc(C(N)=O)cc3c2n1CC(C)(C)CO3` [Example 46, 1-(4-Bromo-1-ethyl-3-methyl-1H-pyrazole-5-carboxamido)-8,8-dimethyl-8,9-dihydro-7H-6-oxa-2,9a-diazabenzo[cd]azulene-4-carboxamide], on STING variants (HAQ) [3], the “Fold change related to DMSO control, HAQ” value amounted to 2.12 fold. Also, the “Fold change related to DMSO control, WT” value on STING variants (WT) [4] is 1.41 fold. Moreover, the half-maximal effective concentration (EC50) on STING was greater than 5.6 µM.

Take `CC[C@H]1COc2cc(C(N)=O)cc3nc(NC(=O)c4c(F)c(C)nn4CC)n1c23` [Example 47, (S)-3-Ethyl-2-(1-ethyl-4-fluoro-3-methyl-1H-pyrazole-5-carboxamido)-3,4-dihydro-5-oxa-1,2a-diazaacenaphthylene-7-carboxamide]: the “Fold change related to DMSO control, HAQ” value at STING variants (HAQ) [3] was found to be 27.64 fold. For the same compound, on STING variants (WT) [4], the “Fold change related to DMSO control, WT” value was determined as 6.91 fold. This compound also had a concentration for a half-maximal effect (EC50) at STING greater than 5.2 µM.

As for `CC[C@H]1COc2cc(C(N)=O)cc3nc(NC(=O)c4c(Cl)c(C)nn4CC)n1c23` [Example 48, (S)-2-(4-Chloro-1-ethyl-3-methyl-1H-pyrazole-5-carboxamido)-3-ethyl-3,4-dihydro-5-oxa-1,2a-diazaacenaphthylene-7-carboxamide], the “Fold change related to DMSO control, HAQ” value on STING variants (HAQ) [3] is listed as 3.46 fold. On STING variants (WT) [4], the “Fold change related to DMSO control, WT” value was 1.85 fold. Also, the “hIFNβ ELISA (EC50, μM)” value at STING was “inactive”.

Consider `CC[C@H]1COc2cc(C(N)=O)cc3nc(NC(=O)c4c(Br)c(C)nn4CC)n1c23` [Example 49, (S)-2-(4-Bromo-1-ethyl-3-methyl-1H-pyrazole-5-carboxamido)-3-ethyl-3,4-dihydro-5-oxa-1,2a-diazaacenaphthylene-7-carboxamide], for which, on STING variants (HAQ) [3], the “Fold change related to DMSO control, HAQ” value was found to be 1.94 fold. The “Fold change related to DMSO control, WT” value at STING variants (WT) [4] is 1.49 fold. The compound further came in with a half-maximal effective concentration (EC50) at STING greater than 2.5 µM.
